The record followed here is PubChem BioAssay AID179 (DTP/NCI, 2004).

The source made the active and inactive calls.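 Rule for the calls: active = compounds giving half or more protection of infected cells from virus-caused growth loss, again on retest; inactive = the rest.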

In the experiment the test system is CEM cells HIV-1 protection, formazan growth assay. As to the kind of experiment: NCI AIDS Antiviral Assay. To be noted: for IC50: measured here: growth of uninfected CEM cells. In a few lines: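 Five concentrations of each compound were applied to infected and uninfected human CEM cells. Protection from HIV-1 was judged from growth measured with a soluble formazan assay.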

In the case of `COc1ccc(C2=C(Cl)c3cc(OC)c(OC)cc3C2)cc1OC`, the EC50 was above 200 µM and the IC50 was above 200 µM.

For `c1ccc2c(c1)Cc1cn3ncnc3nc1-2`, the EC50 is above 200 µM and the concentration for half-maximal inhibition (IC50) is above 200 µM.

For the compound `N#Cc1ccc(C=NC23CC4CC(CC(C4)C2)C3)cc1`, the EC50 was above 67.6 µM and the IC50 was above 67.6 µM.

On to `COC(=O)C1=C(O)c2cc(C)c(C)c(C#N)c2NC(=O)C1`, for which the EC50 is above 200 µM and the IC50 is above 200 µM.

Regarding `CC(=O)Nc1cc2cc(NC=C(C#N)C#N)ccc2oc1=O`, the EC50 was above 37.2 µM and the IC50 is above 37.2 µM.

As for `CC(C)C1CSC2N1C(=O)C2(OCc1ccccc1)C1CC1` (centres undefined), the EC50 is above 200 µM and the IC50 is 81.3 µM.

On to `COc1ccc(/C(C)=C2\CCCN(Cc3ccccc3)C2)cc1`, for which the EC50 is above 200 µM and the half-maximal inhibitory concentration (IC50) worked out at 30.9 µM.

`C/C=C(/C1CC(=O)N2CCc3c([nH]c4ccccc34)C2C1)[Si](C)(C)C` (centres undefined): the EC50 was above 10.7 µM and the IC50 is above 10.7 µM.

For the compound `O=C1Nc2nc3ccccc3n2N=C2CCCC12` (centres undefined), the outcome was inactive.

Consider `CC1=C(c2ccccc2)CON(c2ccccc2)C1`, for which the EC50 is above 53.7 µM and the IC50 is above 53.7 µM.

On to `O=C1CC2CC(CC3(CO3)C2)C1F` (centres undefined), for which the EC50 was above 200 µM and the half-maximal inhibitory concentration (IC50) is above 200 µM.

For `O=C1NN=C2CCCCCCC12Cl` (centres undefined), the EC50 was above 1050 µM and the half-inhibitory concentration (IC50) came out at 158 µM.

`Cn1c2cccc3nnc4cccc(c4c32)n1C`: the outcome was inactive.

As for `COC1=NCc2ccccc2-c2ccccc21`, the EC50 was above 224 µM and the concentration for half-maximal inhibition (IC50) came out at 123 µM.

With `O=C1C2C3C=CC(O3)C2C(=O)N1/N=C\C(O)C(O)C(O)C(O)CO` (centres undefined), the EC50 is above 129 µM and the IC50 was above 129 µM.

With `CC1(C)c2ccccc2C(=O)C12CCC(=O)CC2`, the EC50 was above 200 µM and the IC50 is above 200 µM.

On to `O=C1/C(=C/c2ccccc2Cl)CCc2ccccc21`, for which the EC50 is above 10 µM and the IC50 is above 10 µM.

On to `CCC(COC(=O)CC[C@@H](NC(=O)C(C)NC(=O)C(C)OC1C(O)C(CO)OC(OCc2ccccc2)C1NC(C)=O)C(N)=O)NC1c2ccccc2Nc2cccc([N+](=O)[O-])c21` (some centres undefined), for which the EC50 is above 200 µM and the IC50 turned out to be 145 µM.

As to `[Pd+2].[S-]c1ncccn1.[S-]c1ncccn1`, the EC50 was above 200 µM and the IC50 was determined as 0.107 µM.

As for `COc1ccc(C(c2ccccc2)(c2ccc(OC)cc2)N2C(=O)NC3C(CCCCC(=O)NCCCCCCOP(OCCC#N)N(C(C)C)C(C)C)SCC32)cc1` (centres undefined), the EC50 is above 4.47 µM and the IC50 is above 4.47 µM.

On to `CCOC(=O)CCC(NC(=O)OCc1ccccc1)C(=O)NC(CCC(=O)OCC)C(=O)NC(CCC(=O)OCC)C(=O)NC(CCC(=O)OCC)C(=O)NC(CCC(=O)OCC)C(=O)NC(CCC(=O)OCC)C(=O)NC(CCC(=O)OCC)C(=O)OCC` (centres undefined), for which the EC50 is above 100 µM and the IC50 was 30.2 µM.

Regarding `O=c1oc2ccccc2n1CCN1CCCCC1`, the EC50 was above 200 µM and the concentration for half-maximal inhibition (IC50) is above 200 µM.

In the case of `CCCCCCCCCCCCCCCCC(c1ccc(O)c(C(=O)O)c1)c1ccc(O)c(C(=O)O)c1`, the EC50 was above 229 µM and the half-inhibitory concentration (IC50) amounted to 91.2 µM.

For `COC(=O)C(=O)Cc1nc2ccccc2s1`, the result was inactive.

Turning to `Cc1nn(C(=O)CC(=O)Nc2ccc(Cl)cc2)c(C)c1N=Nc1ccccc1F`, the outcome was inactive.

For the compound `Cc1cn(C(Cc2ccccc2)OCCN2C(=O)c3ccccc3C2=O)c(=O)[nH]c1=O` (centres undefined), the EC50 was above 200 µM and the half-inhibitory concentration (IC50) is above 200 µM.

As to `CCOC(=O)NN(C(=O)OCC)C(=C(c1ccccc1)N1CCOCC1)N(NC(=O)OCC)C(=O)OCC`, the EC50 was above 200 µM and the IC50 is above 200 µM.

With `O=C1CN(CCN2CCCCC2)CC(=O)N2CCCCN12`, the EC50 was above 200 µM and the IC50 is above 200 µM.

For `Cc1ccc2cc(NC(=O)CBr)c3ccc(C)nc3c2n1.Cc1ccc2cc(NC(=O)CBr)c3ccc(C)nc3c2n1.O=C1OC(C(O)C[O-])C(O)=C1O.[Cu+]`, the EC50 was above 12.6 µM and the half-inhibitory concentration (IC50) was found to be 3.02 µM.

`c1ccc(-c2nnc(-c3nsc4ccccc34)o2)cc1`: the EC50 is above 18.6 µM and the IC50 was above 18.6 µM.

For `CCOC(=O)C1C(c2ccccc2)=C(c2ccccc2)C(c2ccccc2)=C1c1ccccc1`, the result was inactive.

Regarding `CCOC(=O)CCc1c(C)[nH]c2c(C)c3c([nH]c4ccc(Cl)cc43)c(C)c2c1=O`, the EC50 is above 200 µM and the IC50 worked out at 11 µM.

In the case of `NC1=NS(=O)(=O)N=C(N)C1=NNc1ccccc1`, the EC50 was above 933 µM and the concentration for half-maximal inhibition (IC50) is 141 µM.

As to `Clc1cc2n[se]nc2cc1Cl`, the outcome was inactive.

Turning to `O=NN1C(c2ccccc2)CCCC1c1ccccc1` (centres undefined), the EC50 is above 51.3 µM and the IC50 is above 51.3 µM.

Regarding `COc1ccc(-c2c(C#N)c(N)nc3c2CCS(=O)(=O)c2ccccc2-3)cc1`, the EC50 was above 200 µM and the half-inhibitory concentration (IC50) was above 200 µM.

Regarding `BrC12c3ccccc3Sc3ccccc3C1(Br)c1ccccc12` (centres undefined), the outcome was inactive.

With `CC1=NC(=Cc2cc(Br)cc(Br)c2)C(=O)N1n1c(-c2ccccc2)nc2ccccc2c1=O`, the EC50 is above 200 µM and the IC50 amounted to 87.1 µM.

With `Fc1ccc(OCc2ccc3nc(-c4ccccc4)c(Cl)nc3c2)cc1`, the EC50 is above 100 µM and the IC50 was above 100 µM.

As to `CCOC(=O)N1CCC2(CC1)C[C@](Sc1ccccc1)(C(C)=O)[C@H](C)O2`, the EC50 is above 200 µM and the IC50 was above 200 µM.

In the case of `CCOC(=O)c1cc(Br)c(-c2cc(C)no2)[nH]1`, the EC50 was above 200 µM and the IC50 stood at 1.48 µM.

For `CC(=O)Nc1ncc([N+](=O)[O-])s1`, the EC50 was above 200 µM and the IC50 is above 200 µM.

Take `CC(=O)OC1CCC2C3CCC4(C)C(=O)CCC4C3C3OC23C1` (centres undefined): the EC50 is above 282 µM and the 50% inhibitory concentration (IC50) was 209 µM.

With `Cn1c2ccc3cc2c(=S)c2cc(ccc21)OCCOCCOCCOCCOCCO3`, the EC50 is above 200 µM and the IC50 came out at 61.7 µM.

As to `BrN1C2c3ccccc3C1c1ccccc12`, the result was inactive.

In the case of `CCn1c2ccccc2n2c(=O)c3c(c(C#N)c12)CCCC3`, the EC50 is above 200 µM and the IC50 was above 200 µM.

In the case of `N=c1oc2ccccc2cc1-c1nc2ccccc2[nH]1`, the result was inactive.

For the compound `CC(=O)NNc1nc(C)c(C(=O)NNC(=O)C(=O)Nc2ccccc2C#N)s1`, the EC50 was above 89.1 µM and the half-maximal inhibitory concentration (IC50) was determined as 51.3 µM.

Turning to `O=[N+]([O-])c1nccn1CC(O)CO` (centres undefined), the EC50 is above 661 µM and the IC50 was above 661 µM.

Consider `O=S1(=O)OC(c2cc(Br)c(O)c(Br)c2)(c2cc(Br)c(O)c(Br)c2)c2ccccc21`, for which the outcome was inactive.

Take `S=c1nc(N2CCCCC2)ss1`: the result was inactive.

Regarding `CCCC(=O)OCC1OC2OC(C)(C)OC2C2OC(C)(C)OC12` (centres undefined), the outcome was inactive.

Regarding `O=C1/C(=C\c2cccc(Oc3ccccc3)c2)SC(c2ccccc2)N1c1cc(Cl)ccc1Cl` (centres undefined), the EC50 is above 200 µM and the IC50 was 9.33 µM.

Consider `N#C/C(=C\NC(=S)Nc1ccc(S(N)(=O)=O)cc1)C(=O)c1ccc2ccccc2c1`, for which the EC50 was above 200 µM and the 50% inhibitory concentration (IC50) turned out to be 155 µM.

For the compound `O=C(Cc1nc2ccccc2o1)C(=O)Nc1cccc(Cl)c1`, the result was inactive.

In the case of `Cc1ccc(S(=O)(=O)OC(c2ccccc2)c2ccccc2)cc1`, the EC50 was above 15.5 µM and the IC50 came out at 10.5 µM.

In the case of `O=C(O/N=C1\CCCC\C1=C/c1ccccc1)c1ccc([N+](=O)[O-])cc1`, the result was inactive.

Take `Cc1c2ccccc2nc(CSCCC(C)C)[n+]1[O-]`: the EC50 was 28.8 µM and the half-maximal inhibitory concentration (IC50) was 135 µM.

For the compound `CC(C)(C)CC(C)(C)SSc1n[nH]c(=S)s1`, the EC50 was above 200 µM and the IC50 was 17.4 µM.

`CCC[CH2][Sn]1([CH2]CCC)[O]C(=O)c2ccc(N)cc2[O]1`: the outcome was inactive.

As for `Cc1c[nH]c(C(=O)O)c1-c1ccc2c(-c3ccccc3)nc3ccccc3n12`, the EC50 was above 200 µM and the IC50 is 33.1 µM.

In the case of `N=c1nnc2ccc(Cl)cc2n1O`, the EC50 is above 200 µM and the half-maximal inhibitory concentration (IC50) was determined as 33.1 µM.

For `CCOC(=O)/C(C#N)=C/c1ccc(-c2ccccc2)cc1`, the EC50 is above 25.7 µM and the IC50 was above 25.7 µM.

Regarding `O/N=C/c1ccc(O)c(O)c1`, the EC50 was above 1620 µM and the concentration for half-maximal inhibition (IC50) stood at 87.1 µM.

As for `O=C1OCCCCOC(=O)c2ccccc2SSc2ccccc21`, the EC50 is above 200 µM and the half-maximal inhibitory concentration (IC50) was above 200 µM.

Turning to `CCOc1ccc(N=Cc2ccnc3ccccc23)cc1`, the outcome was inactive.

On to `CC(C)(C)NCc1c(C(=O)NCCO)[n+](=O)c2ccccc2n1[O-]`, for which the EC50 is above 75.9 µM and the half-maximal inhibitory concentration (IC50) is above 75.9 µM.

For `CC(C)=CCCC1(C)C=Cc2c(ccc3c(C)noc23)O1` (centres undefined), the EC50 was above 18.2 µM and the IC50 was above 18.2 µM.

`O=C(O)c1ccccc1/C=C1\Cc2ccc3c(c2C1=O)CCCC3`: the EC50 is above 200 µM and the IC50 came out at 41.7 µM.

Regarding `CCOC(=O)CC1(C(=O)OCC)c2[nH]c3ccccc3c2CCN1Cc1ccccc1` (centres undefined), the EC50 was above 69.2 µM and the half-inhibitory concentration (IC50) came to 17.4 µM.

Consider `O=C(O)c1nc2cc(C(F)(F)F)ccc2nc1Nc1ccc(Cl)c(Cl)c1`, for which the EC50 is above 200 µM and the IC50 came out at 10 µM.

Regarding `CC1CCC(=O)C(C(=O)CC2CC(=O)NC(=O)C2)C1` (centres undefined), the EC50 is above 200 µM and the IC50 is above 200 µM.

As for `Nc1ccc(S(=O)(=O)c2ccc(NCNC(CSSCC(NCNc3ccc(S(=O)(=O)c4ccc(N)cc4)cc3)C(=O)O)C(=O)O)cc2)cc1` (centres undefined), the EC50 was above 200 µM and the 50% inhibitory concentration (IC50) is 112 µM.

As for `COc1ccc2c(c1)-c1nc(=S)n(CCCN(C)C)c3ccc([N+](=O)[O-])c(c13)N2`, the EC50 was above 2 µM and the IC50 came to 0.389 µM.

`COc1cc(C2C3=C(COC3=O)OC(C)(C)Oc3cc4c(cc32)OCO4)cc(OC)c1OC` (centres undefined): the EC50 is above 2 µM and the IC50 was 0.355 µM.
